Measurements: US11358933B2, “Compounds and methods for inhibiting CYP26 enzymes” (Queen's University at Kingston, priority 2017, dated 2022)

Experiments:
[1] = tested on: RA target gene (CYP26A1) expression in MCF-7 cells; test: Enhancement of RA activity assay, QPCR of CYP26A1 expression in MCF-7 cells; format: cell-based; settings: 0.1 μM RA plus 1 μM compound, 24, 48, 72 hours
Protocol: An RA activity assay was used to measure the ability of compounds that inhibit CYP26 to enhance activity of RA, for example, by limiting its catabolism. This assay measured expression of endogenous RA target genes in MCF-7 cells that have been treated with RA and a compound of interest. A compound that inhibits CYP26 activity will have the effect of prolonging the induction of RA target genes in response to RA.
Exponentially growing MCF-7 cells were treated with trypsin, collected and plated into 6-well culture dishes at 300,000 cells per well. Once cells had reached confluency, they were treated with CYP26 inhibitor test compounds or with ketoconazole (a non-selective CYP inhibitor) at a final concentration of 1 μM, or an equal volume of DMSO as a control. […] RNA was harvested using Trizol reagent after 24, 48, and 72 hours of treatment. cDNA was synthesized from 2 μg of total RNA using Superscript III cDNA synthesis kit with random priming (available from Life Technologies, Burlington, ON, Canada). Analysis of expression of the RA inducible CYP26A1 gene was quantified by qPCR normalized against expression of PMM2 with Sybr Select Master Mix (Life Technologies) and gene specific primers in a two-step thermal cycling reaction. Data is provided for a CYP26B1 selective inhibitor, which enhances the induction of CYP26A1. […]

human AML THP-1 cells = test: Leukemia cell differentiation by FACS (PE-CD11b), THP-1 cells with or without OP9 stroma; format: cell-based
Protocol: (§1) Many human non-APL AML cell lines are sensitive to RA-induced differentiation. However, co-culture of leukemic cells with bone marrow stromal cells can block this effect of RA. This assay tests the ability of CYP26 inhibitor compounds to overcome the protective effect that stromal cells have on leukemic cell differentiation. For these experiments, OP9 mouse bone marrow stromal cells are grown MEM-α containing 20% FBS, in 24 well plates until a cell monolayer is formed. OP9 cells are then irradiated (15Gy) using a GammaCell 20 cesium-137 source (located at Queen's University) in order to induce growth arrest. Leukemic cells are then added to the irradiated monolayers, or control wells without OP9 cells. AML cell lines (150,000 cells) are then plated onto OP9 monolayers in their appropriated growth medium; THP-1 RPMI-1640 medium containing 10% FBS; MDSL, RPMI-1640 medium containing 10% FBS and 10 ng/ml recombinant human IL-3; Kasumi-1, RPMI-1640 containing 20% FBS; MV4-11, IMDM containing 10% FBS. Cells are then treated for 72 hours with DMSO (vehicle control), RA (0.1 μM for THP-1 and MV4-11 cells, and 1 μM for Kasumi-1 cells), test CYP26 inhibitor compound, or the combination of RA and inhibitor compound. After the treatment period, leukemic cells are collected and stained with fluorophore labeled antibodies against cell surface antigens indicative of myeloid differentiation (PE-CD11b), or of stem cell populations (FITC-CD34, PE-CD38); all antibodies are available from BD Biosciences. Stained cells are then sorted by FACS in a BD FACS Aria 3 flow cytometer (Queen's University) using FACS Diva software, to assess percentage of cells that are CD11b^+, the relative expression levels of CD11b (by median fluorescence intensity—MFI), or percentage of CD34^+CD38^− leukemic stem cells (LSCs). Results are typically presented as the average of triplicates.

MV4-11 cells = test: Leukemia cell differentiation by FACS (CD11b+), MV4-11 cells with or without stroma; format: cell-based, human; settings: RA plus compound, in the presence of stroma
Protocol: as §1, with “Cells are then treated for 72 hours with DMSO (vehicle control), RA (0.1 μM for THP-1 and MV4-11 cells, and 1 μM for Kasumi-1 cells), test CYP26 inhibitor compound, or the combination of RA and inhibitor compound. After the treatment period, leukemic cells are collected and stained with fluorophore labeled antibodies against cell surface antigens indicative of myeloid differentiation (PE-CD11b), or of stem cell populations (FITC-CD34, PE-CD38); all antibodies are available from BD Biosciences.” left out, “Results are typically presented as the average of triplicates.” left out

[2] = tested on: primary human bone marrow stromal cells; test: RA metabolism by primary human bone marrow stromal cells; format: cell-based; settings: pre-treated with DMSO or 1 μM RA 24 hours; 1 μM compound (FIG. 5)
Protocol: These experiments are to assess the ability of primary cells, or cell lines to metabolize RA, and to determine the effect of inhibition of CYP26A1 or CYP26B1 on this ability. For these experiments, cells are plated into 48-well plates and treated with a radiolabeled (^3H) RA. The extent of conversion of this labeled RA to water soluble metabolites is determined as above for in the cell-based inhibitor assay. Primary human bone marrow stromal cells (available from Lonza) were cultured in MyeloCult (available from Stem Cell Technologies, Vancouver, Canada). Mouse OP9 bone marrow stromal cells and MC3T3 pre-osteoblasts were cultured as above. Cells are plated in the appropriate culture medium and allowed to form a monolayer. Cells are then pre-treated with either DMSO (vehicle control) or RA (1 μM) for 24 hours to induce CYP26 expression. Vehicle, and RA induced cells are then exposed to ^3H-RA in the presence or absence of test CYP26 inhibitor to examine the effects on RA metabolism. Cells are incubated for 3 hours with labeled RA, and metabolites extracted and analyzed as above.

THP-1 cells = test: Leukemia cell colony formation, THP-1 cells; format: cell-based, human; settings: RA plus compound, culture with stromal cells
Protocol: This experiment is used to test the long-term proliferative ability of hematopoietic stem and progenitor cells as well as leukemic stem cells. Colony forming ability in long term cultures is indicative of stem/progenitor cell activity. […] For these experiments, bone marrow stromal and leukemic cell co-cultures are prepared as described above and treated with RA and/or CYP26 inhibitor compound for 72 hours. After the treatment period, leukemic cells are collected and re-plated in semi-solid methylcellulose medium to assess colony forming ability. 500 leukemic cells are plated per dish in 35 mm plates in 1.1 ml of MethoCult (available from STEMCELL Technologies, Vancouver, Canada). Triplicate plates are prepared per treatment, and cultures are grown for 14-16 days in a CO2 incubator. After the culture period colonies are counted under a dissecting microscope.

CC(C)(C)c1cccc(-c2cc3cc(/C=C/C(=O)O)ccc3[nH]2)c1 [Compound 026]
RA target gene transcription on co-treatment with RA [1]: enhanced RA target gene transcription, and prolonged this response to at least 72 hours | PE-CD11b MFI (human AML THP-1 cells; 0.1 μM RA plus 1 μM compound, OP9 stroma present, 72 hours): greatly enhanced CD11b MFI | Sensitization to low doses of RA (human AML THP-1 cells; in the presence of stroma): sensitized THP-1 cells to low doses of RA | RA-induced differentiation (CD11b+ cells) (MV4-11 cells): rescued RA-induced differentiation in the presence of stroma | RA metabolism, basal and RA-induced [2]: efficiently blocked both basal and RA-induced RA metabolism | Colony forming units (THP-1 cells): rescued the effects of RA and decreased colony forming units
